Results as given in ChEMBL document CHEMBL5137012, “The role of the maleimide ring system on the structure-activity relationship of showdomycin” (Eur J Med Chem, 2022).
Calls of active or inactive are those of the source. The calls are words filed in the database; no cut-off is given here.

What was measured:
[1] = test system: Escherichia coli; assay: Inhibition of Escherichia coli RNA polymerase-mediated processive transcription elongation at polythymidine sequence at 2 mM incubated for 5 mins by PAGE analysis
[2] = test system: Saccharomyces cerevisiae; assay: Inhibition of Saccharomyces cerevisiae RNA polymerase 2-mediated processive transcription elongation at polythymidine sequence at 2 mM incubated for 5 mins by PAGE analysis
[3] = test system: Escherichia coli; assay: Substrate activity at Escherichia coli RNA polymerase assessed as extension of transcription elongation complex by measuring incorporation into RNA in place of UTP at 100 uM incubated for 1 min in presence of GTP by PAGE analysis
[4] = test system: Saccharomyces cerevisiae; assay: Substrate activity at Saccharomyces cerevisiae RNA polymerase 2 assessed as extension of transcription elongation complex by measuring incorporation into RNA in place of UTP at 100 uM incubated for 1 min in presence of GTP by PAGE analysis
[5] = species on record: Homo sapiens; assay: Substrate activity at human mitochondria RNA polymerase assessed as extension of transcription elongation complex by measuring incorporation into RNA in place of UTP at 100 uM incubated for 1 min in presence of GTP by PAGE analysis
[6] = test system: HEK-293T; assay: Cytotoxicity against HEK293T cells at 125 uM incubated for 24 hrs by LDH assay; assay type: toxicity, cell-based; details: human
[7] = test system: HEK-293T; assay: Cytotoxicity against HEK293T cells assessed as reduction in viable cells at 500 uM incubated for 24 hrs by CCK-8 assay; assay type: toxicity, cell-based; details: human
[8] = test system: HEK-293T; assay: Cytotoxicity against HEK293T cells assessed as morphological changes at 125 uM; assay type: toxicity, cell-based; details: human
[9] = test system: Escherichia coli; assay: Antibacterial activity against Escherichia coli K12 expressing modified luxABCDE genes assessed as reduction in bacterial growth by measuring reduction in optical density at 0.002 to 2.5 mM incubated for 16 hrs by microplate reader analysis; assay type: functional, organism-based; details: dose 0.002-2.5 mM
[10] = test system: Escherichia coli; assay: Antibacterial activity against Escherichia coli K12 expressing modified luxABCDE genes assessed as reduction in bacterial growth by measuring reduction in bioluminescence at 0.002 to 2.5 mM incubated for 16 hrs by microplate reader analysis; assay type: functional, organism-based; details: dose 0.002-2.5 mM
[11] = test system: Escherichia coli; assay: Bactericidal activity against Escherichia coli K12 expressing modified luxABCDE genes assessed as reduction in luminescence at 2.5 mM incubated for 16 hrs by microplate reader analysis; assay type: functional, organism-based
[12] = test system: Escherichia coli; assay: Antibacterial activity against Escherichia coli K12 expressing modified luxABCDE genes assessed as reduction in bacterial growth by measuring reduction in bioluminescence at low concentrations measured after 250 mins by microplate reader analysis; assay type: functional, organism-based
[13] = test system: Escherichia coli; assay: Antibacterial activity against Escherichia coli K12 expressing modified luxABCDE genes assessed as reduction in bacterial growth by measuring reduction in optical density at 0.002 to 2.5 mM incubated for 16 hrs in presence of uridine at 0.002 to 12.5 mM by microplate reader analysis; assay type: functional, organism-based; details: dose 0.002-2.5 mM
[14] = test system: Escherichia coli; assay: Antibacterial activity against Escherichia coli K12 expressing modified luxABCDE genes assessed as reduction in bacterial growth by measuring reduction in bioluminescence at 0.002 to 2.5 mM incubated for 16 hrs in presence of uridine at 0.002 to 12.5 mM by microplate reader analysis; assay type: functional, organism-based; details: dose 0.002-2.5 mM
[15] = test system: Escherichia coli; assay: Substrate activity at Escherichia coli RNA polymerase assessed as one nucleotide extension of transcription elongation complex by measuring incorporation of 4-ethylthioshowdomycin-5'-monophosphate into RNA at 100 uM incubated for 1 min by ATTO680 fluorophore based PAGE analysis
[16] = species on record: Homo sapiens; assay: Substrate activity at human mitochondria RNA polymerase assessed as one nucleotide extension of transcription elongation complex by measuring incorporation of 4-ethylthioshowdomycin-5'-monophosphate into RNA at 100 uM incubated for 1 min by ATTO680 fluorophore based PAGE analysis
[17] = species on record: Homo sapiens; assay: Substrate activity at human mitochondria RNA polymerase assessed as two nucleotide extension of transcription elongation complex by measuring incorporation of 4-ethylthioshowdomycin-5'-monophosphate into RNA at 100 uM incubated for 1 min in presence of GTP by ATTO680 fluorophore based PAGE analysis
[18] = test system: Escherichia coli; assay: Antibacterial activity against Escherichia coli K12 expressing modified luxABCDE genes assessed as reduction in bacterial growth by measuring reduction in optical density at 40 uM incubated for 16 hrs by microplate reader analysis; assay type: functional, organism-based
[19] = test system: Escherichia coli; assay: Antibacterial activity against Escherichia coli K12 expressing modified luxABCDE genes assessed as reduction in bacterial growth by measuring reduction in bioluminescence at 40 uM incubated for 16 hrs by microplate reader analysis; assay type: functional, organism-based
[20] = test system: Escherichia coli; assay: Antibacterial activity against Escherichia coli K12 expressing modified luxABCDE genes assessed as reduction in bacterial growth by measuring reduction in optical density incubated for 16 hrs by microplate reader analysis; assay type: functional, organism-based; details: DDE = dose-dependent effect
[21] = test system: Escherichia coli; assay: Antibacterial activity against Escherichia coli K12 expressing modified luxABCDE genes assessed as reduction in bacterial growth by measuring reduction in bioluminescence incubated for 16 hrs by microplate reader analysis; assay type: functional, organism-based; details: DDE = dose-dependent effect
[22] = test system: HEK-293T; assay: Cytotoxicity against HEK293T cells at 30 uM incubated for 24 hrs by LDH assay; assay type: toxicity, cell-based; details: human
[23] = test system: HEK-293T; assay: Cytotoxicity against HEK293T cells assessed as reduction in viable cells at 125 uM incubated for 24 hrs by CCK-8 assay; assay type: toxicity, cell-based; details: human
[24] = test system: HEK-293T; assay: Cytotoxicity against HEK293T cells assessed as morphological changes at 30 uM; assay type: toxicity, cell-based; details: human
[25] = test system: Escherichia coli; assay: Bactericidal activity against Escherichia coli K12 expressing modified luxABCDE genes assessed as reduction in luminescence at 0.625 mM incubated for 16 hrs by microplate reader analysis; assay type: functional, organism-based

**Q.** For `O=C1NC(=O)C([C@@H]2O[C@H](COP(=O)(O)OP(=O)(O)OP(=O)(O)O)[C@@H](O)[C@H]2O)=C1Br`, which inhibition [1] is on record?
**A.** Active

**Q.** And the inhibition [2]?
**A.** Active

**Q.** And the Activity [3]?
**A.** Active

**Q.** And the Activity [4]?
**A.** Active

**Q.** What about the Activity [5] of the same molecule?
**A.** Active

**Q.** `C[C@@H](SC1=C([C@@H]2O[C@H](COP(=O)(O)OP(=O)(O)OP(=O)(O)O)[C@@H](O)[C@H]2O)C(=O)NC1=O)C(=O)O` was tested. Which Activity [3] did it give?
**A.** Active

**Q.** `CCSC1=C([C@@H]2O[C@H](CO)[C@@H](O)[C@H]2O)C(=O)NC1=O` was tested. Which Activity [6] did it give?
**A.** Toxic

**Q.** What about the Activity [7] of the same molecule?
**A.** Toxic

**Q.** And the Activity [8]?
**A.** Toxic

**Q.** What about the Activity [9] of the same molecule?
**A.** Active

**Q.** What about the Activity [10] of the same molecule?
**A.** Active

**Q.** And the Activity [11]?
**A.** Active

**Q.** What about the Activity [12] of the same molecule?
**A.** Active

**Q.** And the Activity [13]?
**A.** Active

**Q.** And the Activity [14]?
**A.** Active

**Q.** For `CCSC1=C([C@@H]2O[C@H](COP(=O)(O)OP(=O)(O)OP(=O)(O)O)[C@@H](O)[C@H]2O)C(=O)NC1=O`, which Activity [15] is on record?
**A.** Active

**Q.** And the Activity [16]?
**A.** Active

**Q.** What about the Activity [17] of the same molecule?
**A.** Active

**Q.** What about the inhibition [1] of the same molecule?
**A.** Active

**Q.** What about the inhibition [2] of the same molecule?
**A.** Active

**Q.** How did the inhibition [1] turn out when `C[Se]C1=C([C@@H]2O[C@H](COP(=O)(O)OP(=O)(O)OP(=O)(O)O)[C@@H](O)[C@H]2O)C(=O)NC1=O` was run?
**A.** Active

**Q.** And the inhibition [2]?
**A.** Active

**Q.** What about the Activity [3] of the same molecule?
**A.** Active

**Q.** What about the Activity [4] of the same molecule?
**A.** Active

**Q.** What about the Activity [5] of the same molecule?
**A.** Active

**Q.** How did the Activity [3] turn out when `C[C@H](SC1=C([C@@H]2O[C@H](COP(=O)(O)OP(=O)(O)OP(=O)(O)O)[C@@H](O)[C@H]2O)C(=O)NC1=O)C(=O)O` was run?
**A.** Active

**Q.** Which results are given for `CSC1=C([C@@H]2O[C@H](COP(=O)(O)OP(=O)(O)OP(=O)(O)O)[C@@H](O)[C@H]2O)C(=O)NC1=O`?
**A.** inhibition [1]: Active; inhibition [2]: Active; Activity [3]: Active; Activity [4]: Active; Activity [5]: Active

**Q.** `CN[C@@H]1[C@@H](O[C@H]2O[C@H](CO)[C@@H](N)[C@H](O)[C@H]2O)O[C@H]2C[C@@H](N)[C@@H](O[C@H]3[C@H](O)[C@@H](O)[C@H](N)C[C@@H]3N)O[C@@H]2[C@@H]1O` was tested. Which Activity [18] did it give?
**A.** Active

**Q.** And the Activity [19]?
**A.** Active

**Q.** What does the source list for `N=C(N)NCC(=O)N(O)C(CCC(N)=O)C(=O)NC[C@H]1O[C@@H](c2c[nH]c(=O)[nH]c2=O)[C@H](O)[C@@H]1O` (stereo partly drawn)?
**A.** Activity [20]: Dde; Activity [21]: Dde

**Q.** Which Activity [22] does the source give for `O=C1C=C([C@@H]2O[C@H](CO)[C@@H](O)[C@H]2O)C(=O)N1` here?
**A.** Toxic

**Q.** What about the Activity [23] of the same molecule?
**A.** Toxic

**Q.** And the Activity [24]?
**A.** Toxic

**Q.** And the Activity [9]?
**A.** Active

**Q.** What about the Activity [10] of the same molecule?
**A.** Active

**Q.** What about the Activity [25] of the same molecule?
**A.** Active

**Q.** For `NC[C@H]1O[C@H](O[C@H]2[C@H](O)[C@@H](O[C@H]3O[C@H](CO)[C@@H](O)[C@H](N)[C@H]3O)[C@H](N)C[C@@H]2N)[C@H](O)[C@@H](O)[C@@H]1O`, which Activity [18] is on record?
**A.** Active

**Q.** And the Activity [19]?
**A.** Active
